Assay results reported in DBAASP.
Converted amounts (≈) assume the structure as drawn.

What was measured:
Assay in all cases: ≥ marks a high value that may be exact or a test limit, other limits are often not marked, values filed in µg/mL are converted to µM
[1] = system: Micrococcus luteus ATCC 4698
[2] = system: Staphylococcus epidermidis ATCC 12228
[3] = system: Bacillus megaterium ATCC 17749
[4] = system: Vibrio metschnikovii NCTC 8483
Fusarium oxysporum = system: Fusarium oxysporum
[5] = system: Staphylococcus aureus ATCC 25293
[6] = system: Vibrio alginolyticus ATCC 17749
[7] = system: Salmonella enterica subsp. enterica serovar Newport
[8] = system: Escherichia coli 363 ATCC 11775
Candida sp. = system: Candida sp.
[9] = system: Salmonella enterica subsp. enterica serovar Typhimurium ATCC 14028
Saccharomyces cerevisiae = system: Saccharomyces cerevisiae
Escherichia coli = system: Escherichia coli
Serratia marcescens = system: Serratia marcescens
Candida albicans = system: Candida albicans
[10] = system: Proteus mirabilis ATCC 25933
[11] = system: Klebsiella pneumoniae ATCC 10031
Pseudomonas putida = system: Pseudomonas putida
[12] = system: Escherichia coli DH5alpha
[13] = system: Pseudomonas aeruginosa ATCC 9027
[14] = system: Bacillus subtilis KCTC 1021
[15] = system: Shigella dysenteriae ATCC 9752
[16] = system: Klebsiella oxytoca BCRC 13985
Lactococcus garvieae = system: Lactococcus garvieae
[17] = system: Staphylococcus aureus BCRC 10780
Vibrio harveyi = system: Vibrio harveyi
[18] = system: Enterobacter cloacae BCRC 10401
[19] = system: Streptococcus equinus BCRC 14729
[20] = system: Escherichia coli BCRC 10675
[21] = system: Vibrio alginolyticus BCRC 12829
[22] = system: Staphylococcus aureus BCRC 10781
[23] = system: Klebsiella aerogenes BCRC 10370
[24] = system: Vibrio parahaemolyticus BCRC 10806
[25] = system: Yersinia enterocolitica BCRC 13999
[26] = system: Listeria monocytogenes BCRC 14845
[27] = system: Staphylococcus xylosus BCRC 12930
Vibrio parahaemolyticus = system: Vibrio parahaemolyticus
[28] = system: Vibrio anguillarum serotype O1
[29] = system: Pseudomonas aeruginosa BCRC 10944
Vibrio alginolyticus = system: Vibrio alginolyticus
Streptococcus iniae = system: Streptococcus iniae
[30] = system: Staphylococcus epidermidis RP62A
[31] = system: Staphylococcus aureus NCTC 8325
[32] = system: Candida albicans ATCC 90028
[33] = system: Escherichia coli ATCC 25922
[34] = system: Pseudomonas aeruginosa ATCC 27853
[35] = system: Enterobacter cloacae HNTCC 53001
[36] = system: Staphylococcus aureus T7/20
[37] = system: Klebsiella pneumoniae KK3 9904
[38] = system: Enterococcus faecalis ATCC 29212

CC(C)C[C@@H]1NC(=O)[C@H](CCCN=C(N)N)NC(=O)[C@H](Cc2cnc[nH]2)NC(=O)[C@H](Cc2c[nH]c3ccccc23)NC(=O)CNC(=O)CNC(=O)[C@@H](N)CSSC[C@@H](C(=O)O)NC(=O)[C@H](CCCN=C(N)N)NC1=O [CGGWHRLRC]
MIC [1]: 28 µM (≈ 30.4 µg/mL) | MIC [2]: 43 µM (≈ 46.7 µg/mL) | MIC [3]: ≥ 51 µM | MIC [4]: ≥ 75 µM | MIC (Fusarium oxysporum): 30 µM (≈ 32.6 µg/mL) | MIC [5]: ≥ 49 µM | MIC [6]: ≥ 75 µM | MIC [7]: ≥ 75 µM | MIC [8]: ≥ 75 µM | MIC (Candida sp.): ≥ 59 µM

CC[C@H](C)[C@@H]1NC(=O)[C@H](CCCCN)NC(=O)[C@@H](NC(=O)[C@@H](NC(=O)[C@@H](NC(=O)[C@@H](NC(=O)[C@@H]2CCCN2C(=O)[C@H](CC(C)C)NC(=O)[C@H](Cc2ccccc2)NC(=O)[C@H](CC(N)=O)NC(=O)[C@H](C)NC(=O)[C@H](C)NC(=O)[C@H](CC(C)C)NC(=O)CNC(=O)[C@H](C)NC(=O)[C@H](CC(C)C)NC(=O)[C@H](CC(C)C)NC(=O)[C@@H]2CCCN2C(=O)[C@H](CC(C)C)NC(=O)[C@@H](N)Cc2ccccc2)[C@@H](C)O)[C@@H](C)CC)[C@@H](C)CC)CSSC[C@@H](C(=O)O)NC(=O)[C@H](CCCCN)NC(=O)[C@H](Cc2ccc(O)cc2)NC(=O)[C@H](CO)NC1=O [FLPLLAGLAANFLPTIICKISYKC]
MIC [1]: 0.958 µM (≈ 2.5 µg/mL) | MIC [9]: 19.2 µM (≈ 50 µg/mL) | MIC (Saccharomyces cerevisiae): 19.2 µM (≈ 50 µg/mL) | MIC (Escherichia coli): 38.3 µM (≈ 99.9 µg/mL) | MIC (Serratia marcescens): ≥ 76.6 µM | MIC [2]: 3.83 µM (≈ 9.99 µg/mL) | MIC (Candida albicans): 19.2 µM (≈ 50 µg/mL) | MIC [10]: ≥ 76.6 µM | MIC [11]: 9.58 µM (≈ 25 µg/mL) | MIC (Pseudomonas putida): ≥ 57.5 µM | MIC [12]: 9.58 µM (≈ 25 µg/mL) | MIC [13]: 57.5 µM (≈ 150 µg/mL) | MIC [14]: 3.83 µM (≈ 9.99 µg/mL) | MIC [15]: 19.2 µM (≈ 50 µg/mL)

CC[C@H](C)[C@H](NC(=O)[C@H](Cc1ccc(O)cc1)NC(=O)[C@H](CCCCN)NC(=O)[C@H](Cc1ccc(O)cc1)NC(=O)[C@H](Cc1ccccc1)NC(=O)[C@H](CC(N)=O)NC(=O)[C@H](Cc1ccc(O)cc1)NC(=O)[C@@H](NC(=O)[C@H](Cc1ccc(O)cc1)NC(=O)[C@H](CCCCN)NC(=O)[C@H](C)NC(=O)[C@H](Cc1ccc(O)cc1)NC(=O)[C@H](CCCCN)NC(=O)[C@H](C)NC(=O)CN)[C@@H](C)CC)C(=O)N[C@@H](C)C(=O)N[C@@H](CCCCN)C(=O)N[C@@H](Cc1ccc(O)cc1)C(=O)N[C@H](C(=O)N[C@@H](Cc1c[nH]c2ccccc12)C(=O)O)[C@@H](C)CC [GAKYAKYIYNFYKYIAKYIW]
MIC [16]: ≥ 49.9 µM | MIC (Lactococcus garvieae): ≥ 99.7 µM | MIC [17]: ≥ 49.9 µM | MIC (Vibrio harveyi): 24.9 µM (≈ 64 µg/mL) | MIC [18]: 24.9 µM (≈ 64 µg/mL) | MIC [19]: ≥ 49.9 µM | MIC [20]: 24.9 µM (≈ 64 µg/mL) | MIC [21]: 24.9 µM (≈ 64 µg/mL) | MIC [22]: ≥ 49.9 µM | MIC [23]: 24.9 µM (≈ 64 µg/mL) | MIC [24]: 24.9 µM (≈ 64 µg/mL) | MIC [25]: ≥ 99.7 µM | MIC [26]: ≥ 49.9 µM | MIC [27]: 24.9 µM (≈ 64 µg/mL) | MIC (Vibrio parahaemolyticus): 24.9 µM (≈ 64 µg/mL) | MIC [28]: ≥ 49.9 µM | MIC [29]: 24.9 µM (≈ 64 µg/mL) | MIC (Vibrio alginolyticus): 24.9 µM (≈ 64 µg/mL) | MIC (Streptococcus iniae): ≥ 49.9 µM

CC[C@H](C)[C@H](NC(=O)CN)C(=O)N[C@@H](CCSC)C(=O)N[C@@H](CO)C(=O)N[C@@H](CC(C)C)C(=O)N[C@@H](Cc1ccccc1)C(=O)N[C@@H](CCCCN)C(=O)NCC(=O)N[C@H](C(=O)N[C@@H](CC(C)C)C(=O)N[C@@H](CCCCN)C(=O)N[C@H](C(=O)N[C@@H](C)C(=O)NCC(=O)N[C@@H](CCCCN)C(=O)N[C@@H](Cc1cnc[nH]1)C(=O)N[C@H](C(=O)N[C@@H](C)C(=O)NCC(=O)N[C@@H](CO)C(=O)N[C@@H](CC(C)C)C(=O)N[C@H](C(=O)N[C@@H](CC(=O)O)C(=O)N[C@@H](CCC(N)=O)C(=O)N[C@@H](CC(C)C)C(=O)N[C@@H](CCCCN)C(=O)N[C@H]1CSSC[C@@H](C(=O)O)NC(=O)CNC(=O)CNC(=O)[C@H]([C@@H](C)O)NC(=O)[C@H]([C@@H](C)CC)NC(=O)[C@H](CCCCN)NC1=O)C(C)C)C(C)C)[C@@H](C)O)C(C)C [GIMSLFKGVLKTAGKHVAGSLVDQLKCKITGGC]
MIC [30]: 12.5 µM (≈ 42 µg/mL) | MIC [31]: 12.5 µM (≈ 42 µg/mL) | MIC [32]: ≥ 100 µM | MIC [33]: 3 µM (≈ 10.1 µg/mL) | MIC [34]: 6 µM (≈ 20.2 µg/mL) | MIC [10]: ≥ 100 µM | MIC [35]: 6 µM (≈ 20.2 µg/mL) | MIC [36]: 25 µM (≈ 84 µg/mL) | MIC [37]: 6 µM (≈ 20.2 µg/mL) | MIC [38]: 25 µM (≈ 84 µg/mL)
